From patent US7192924B2, “Corticotropin releasing factor 2 receptor agonists” (priority 2002, dated 2007)
pEC50: −log10 of the molar value. Peptide text beside a SMILES is read from it.

Legend:
[1] = target: T1, CRF2R (Homo sapiens, UniProt Q13324); test: CRF2R agonist activity (EC50, Emax), called comparative CRF binding; type: cell-based; conditions: read-out: CRF2R EC50
T1 sequence (Q13324 1-411): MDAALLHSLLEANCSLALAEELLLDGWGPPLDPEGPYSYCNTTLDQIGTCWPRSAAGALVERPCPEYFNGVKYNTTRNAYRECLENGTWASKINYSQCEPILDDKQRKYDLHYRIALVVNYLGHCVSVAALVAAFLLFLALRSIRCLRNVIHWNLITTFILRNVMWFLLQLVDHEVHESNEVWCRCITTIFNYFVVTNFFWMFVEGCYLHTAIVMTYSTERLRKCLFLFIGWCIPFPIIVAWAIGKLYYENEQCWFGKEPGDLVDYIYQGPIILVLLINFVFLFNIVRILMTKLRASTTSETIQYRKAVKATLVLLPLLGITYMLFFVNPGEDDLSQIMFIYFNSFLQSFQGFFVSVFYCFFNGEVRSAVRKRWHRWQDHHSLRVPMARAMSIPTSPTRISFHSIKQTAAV
Outline: (§1)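 Receptor activation was followed through cAMP, measured in lysates or by a CRE-linked reporter, after peptide or vehicle exposure. Cells carried a single CRF receptor subtype, CRF1R or CRF2R; where both were present, background from the non-target receptor was subtracted.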

[2] = target: T2, CRF1R (Homo sapiens, UniProt P34998); test: CRF1R agonist activity (EC50, Emax), called comparative CRF binding; type: cell-based; conditions: read-out: CRF1R EC50
T2 sequence (P34998 24-415): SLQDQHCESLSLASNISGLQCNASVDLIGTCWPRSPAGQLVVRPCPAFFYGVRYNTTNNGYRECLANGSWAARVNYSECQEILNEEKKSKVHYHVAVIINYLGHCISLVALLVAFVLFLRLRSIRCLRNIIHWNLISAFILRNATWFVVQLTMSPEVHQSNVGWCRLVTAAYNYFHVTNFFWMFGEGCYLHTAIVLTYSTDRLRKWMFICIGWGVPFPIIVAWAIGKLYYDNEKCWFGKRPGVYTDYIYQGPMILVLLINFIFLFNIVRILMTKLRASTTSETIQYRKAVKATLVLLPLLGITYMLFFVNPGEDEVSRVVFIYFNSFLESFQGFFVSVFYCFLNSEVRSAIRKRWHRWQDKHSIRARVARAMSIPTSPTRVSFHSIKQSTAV
Outline: as §1

SMILES: CC[C@H](C)[C@H](N)C(=O)N[C@H](C(=O)N[C@@H](CC(C)C)C(=O)N[C@@H](CO)C(=O)N[C@@H](CC(C)C)C(=O)N[C@@H](CC(=O)O)C(=O)N[C@H](C(=O)N1CCC[C@H]1C(=O)N[C@H](C(=O)NCC(=O)N[C@@H](CC(C)C)C(=O)N[C@@H](CC(C)C)C(=O)N[C@@H](CCC(N)=O)C(=O)N[C@H](C(=O)N[C@@H](CC(C)C)C(=O)N[C@@H](CC(C)C)C(=O)N[C@@H](CCC(=O)O)C(=O)N[C@@H](CCC(N)=O)C(=O)N[C@H](C(=O)N[C@@H](CCCCN)C(=O)N[C@@H](C)C(=O)N[C@@H](CC(=O)O)C(=O)N[C@@H](C)C(=O)N[C@@H](C)C(=O)N[C@@H](CCCNC(=N)N)C(=O)N[C@@H](CCC(=O)O)C(=O)N[C@@H](CCC(N)=O)C(=O)N[C@@H](C)C(=O)N[C@H](C(=O)N[C@H](C(=O)N[C@@H](CC(N)=O)C(=O)N[C@@H](C)C(=O)N[C@@H](CCCNC(=N)N)C(=O)N[C@H](C(=O)N[C@@H](CC(C)C)C(=O)N[C@@H](C)C(=O)N[C@@H](CCCNC(=N)N)C(=O)N[C@H](C(N)=O)C(C)C)[C@@H](C)CC)[C@@H](C)O)[C@@H](C)O)[C@@H](C)O)[C@@H](C)CC)[C@@H](C)CC)C(C)C)C(C)C [compound 108] (H-IVLSLDVPIGLLQILLEQTKADAAREQATTNARILARV-NH2; N-terminus assumed)
- pEC50 [1]: 7.10
- pEC50 [2]: < 7.00

SMILES: CC[C@H](C)[C@H](NC(=O)[C@H](C)NC(=O)[C@H](CC(N)=O)NC(=O)[C@H](CCC(N)=O)NC(=O)[C@H](CCC(=O)O)NC(=O)[C@H](C)NC(=O)[C@H](CCCNC(=N)N)NC(=O)[C@H](CCC(=O)O)NC(=O)[C@H](CCCNC(=N)N)NC(=O)[C@H](CCC(N)=O)NC(=O)[C@H](CO)NC(=O)[C@H](CCC(N)=O)NC(=O)[C@@H](NC(=O)[C@H](CCCNC(=N)N)NC(=O)[C@H](C)NC(=O)[C@H](CC(C)C)NC(=O)[C@H](CCC(=O)O)NC(=O)[C@H](CC(C)C)NC(=O)[C@H](CC(C)C)NC(=O)[C@@H](NC(=O)[C@H](CCCNC(=N)N)NC(=O)[C@H](CC(C)C)NC(=O)[C@H](CC(C)C)NC(=O)[C@H](CC(C)C)NC(=O)[C@H](CC(C)C)NC(=O)[C@@H]1CCCN1C(=O)[C@H](CC(C)C)NC(=O)[C@H](CC(=O)O)NC(=O)[C@@H](NC(=O)[C@H](CO)NC(=O)[C@H](CC(C)C)NC(=O)[C@H](CO)NC(=O)[C@@H]1CCCN1C(=O)[C@H](CC(N)=O)NC(=O)[C@@H](N)CC(=O)O)[C@@H](C)CC)[C@@H](C)O)[C@@H](C)O)C(=O)N[C@H](C(=O)N[C@@H](Cc1ccccc1)C(=O)N[C@@H](C)C(=O)N[C@@H](CO)C(=O)N[C@H](C(N)=O)C(C)C)[C@@H](C)CC [compound 174] (H-DNPSLSIDLPLLLLRTLLELARTQSQRERAEQNAIIFASV-NH2; N-terminus assumed)
- pEC50 [1]: 8.35
- pEC50 [2]: ≤ 6.00

SMILES: CC[C@H](C)[C@H](NC(=O)[C@H](CCC(N)=O)NC(=O)[C@H](C)NC(=O)[C@H](CC(N)=O)NC(=O)[C@H](CCC(N)=O)NC(=O)[C@H](CCC(=O)O)NC(=O)[C@H](C)NC(=O)[C@H](CCCNC(=N)N)NC(=O)[C@H](CCC(=O)O)NC(=O)[C@H](CCCNC(=N)N)NC(=O)[C@H](CCC(N)=O)NC(=O)[C@H](CO)NC(=O)[C@H](CCC(N)=O)NC(=O)[C@@H](NC(=O)[C@H](CCCCN)NC(=O)[C@H](CCC(=O)O)NC(=O)[C@H](CC(C)C)NC(=O)[C@H](CCC(=O)O)NC(=O)[C@H](CC(C)C)NC(=O)[C@H](CC(C)C)NC(=O)[C@@H](NC(=O)[C@H](CCCNC(=N)N)NC(=O)[C@H](CC(C)C)NC(=O)[C@H](CC(C)C)NC(=O)[C@H](CC(C)C)NC(=O)[C@H](CC(C)C)NC(=O)[C@@H]1CCCN1C(=O)[C@H](CC(C)C)NC(=O)[C@H](CC(=O)O)NC(=O)[C@@H](NC(=O)[C@H](CO)NC(=O)[C@H](CC(C)C)NC(=O)[C@H](CO)NC(=O)[C@@H]1CCCN1C(=O)[C@H](CC(N)=O)NC(=O)[C@@H](N)CC(=O)O)[C@@H](C)CC)[C@@H](C)O)[C@@H](C)O)C(=O)N[C@@H](Cc1ccccc1)C(=O)N[C@@H](C)C(=O)N[C@@H](CCC(N)=O)C(=O)N[C@H](C(N)=O)C(C)C [compound 327] (H-DNPSLSIDLPLLLLRTLLELEKTQSQRERAEQNAQIFAQV-NH2; N-terminus assumed)
- pEC50 [1]: 7.55
- pEC50 [2]: ≤ 6.00

SMILES: CC[C@H](C)[C@H](N)C(=O)N[C@H](C(=O)N[C@@H](CC(C)C)C(=O)N[C@@H](CO)C(=O)N[C@@H](CC(C)C)C(=O)N[C@@H](CC(=O)O)C(=O)N[C@H](C(=O)N1CCC[C@H]1C(=O)N[C@H](C(=O)NCC(=O)N[C@@H](CC(C)C)C(=O)N[C@@H](CC(C)C)C(=O)N[C@@H](CCC(N)=O)C(=O)N[C@H](C(=O)N[C@@H](CC(C)C)C(=O)N[C@@H](CC(C)C)C(=O)N[C@@H](CCC(=O)O)C(=O)N[C@@H](CCC(N)=O)C(=O)N[C@@H](C)C(=O)N[C@@H](CCCNC(=N)N)C(=O)N[C@@H](CCC(N)=O)C(=O)N[C@@H](CCCNC(=N)N)C(=O)N[C@@H](C)C(=O)N[C@@H](C)C(=O)N[C@@H](CCCNC(=N)N)C(=O)N[C@@H](CCC(=O)O)C(=O)N[C@@H](CCC(N)=O)C(=O)N[C@@H](C)C(=O)N[C@H](C(=O)N[C@H](C(=O)N[C@@H](CC(N)=O)C(=O)N[C@@H](C)C(=O)N[C@@H](CCCNC(=N)N)C(=O)N[C@H](C(=O)N[C@@H](CC(C)C)C(=O)N[C@@H](C)C(=O)N[C@@H](CCCNC(=N)N)C(=O)N[C@H](C(N)=O)C(C)C)[C@@H](C)CC)[C@@H](C)O)[C@@H](C)O)[C@@H](C)CC)[C@@H](C)CC)C(C)C)C(C)C [compound 114] (H-IVLSLDVPIGLLQILLEQARQRAAREQATTNARILARV-NH2; N-terminus assumed)
- pEC50 [1]: 8.47
- pEC50 [2]: < 7.00

SMILES: CC[C@H](C)[C@H](NC(=O)[C@H](C)NC(=O)[C@H](CC(N)=O)NC(=O)[C@H](CCC(N)=O)NC(=O)[C@H](CCC(=O)O)NC(=O)[C@H](C)NC(=O)[C@H](CCCNC(=N)N)NC(=O)[C@H](CCC(=O)O)NC(=O)[C@H](CCCNC(=N)N)NC(=O)[C@H](CCC(N)=O)NC(=O)[C@H](CO)NC(=O)[C@H](CCC(N)=O)NC(=O)[C@@H](NC(=O)[C@H](CCCNC(=N)N)NC(=O)[C@H](C)NC(=O)[C@H](CC(C)C)NC(=O)[C@H](CCC(=O)O)NC(=O)[C@H](CC(C)C)NC(=O)[C@H](CC(C)C)NC(=O)[C@@H](NC(=O)[C@H](CCCNC(=N)N)NC(=O)[C@H](CC(C)C)NC(=O)[C@H](CC(C)C)NC(=O)[C@H](CCC(N)=O)NC(=O)[C@H](CC(C)C)NC(=O)[C@@H]1CCCN1C(=O)[C@H](CC(C)C)NC(=O)[C@H](CC(=O)O)NC(=O)[C@@H](NC(=O)[C@H](CO)NC(=O)[C@H](CC(C)C)NC(=O)[C@H](CO)NC(=O)[C@@H]1CCCN1C(=O)[C@H](CC(N)=O)NC(=O)[C@@H](N)CC(=O)O)[C@@H](C)CC)[C@@H](C)O)[C@@H](C)O)C(=O)N[C@H](C(=O)N[C@@H](Cc1ccccc1)C(=O)N[C@@H](C)C(=O)N[C@@H](CO)C(=O)N[C@H](C(N)=O)C(C)C)[C@@H](C)CC [compound 176] (H-DNPSLSIDLPLQLLRTLLELARTQSQRERAEQNAIIFASV-NH2; N-terminus assumed)
- pEC50 [1]: 7.90
- pEC50 [2]: ≤ 6.00

SMILES: CC[C@H](C)[C@H](N)C(=O)N[C@H](C(=O)N[C@@H](CC(C)C)C(=O)N[C@@H](CO)C(=O)N[C@@H](CC(C)C)C(=O)N[C@@H](CC(=O)O)C(=O)N[C@H](C(=O)N1CCC[C@H]1C(=O)N[C@H](C(=O)N[C@@H](Cc1c[nH]cn1)C(=O)N[C@@H](CC(C)C)C(=O)N[C@@H](CC(C)C)C(=O)N[C@@H](CCC(N)=O)C(=O)N[C@H](C(=O)N[C@@H](CC(C)C)C(=O)N[C@@H](CC(C)C)C(=O)N[C@@H](CCC(=O)O)C(=O)N[C@@H](CCC(N)=O)C(=O)N[C@@H](C)C(=O)N[C@@H](CCCNC(=N)N)C(=O)N[C@@H](C)C(=O)N[C@@H](CCCNC(=N)N)C(=O)N[C@@H](C)C(=O)N[C@@H](C)C(=O)N[C@@H](CCCNC(=N)N)C(=O)N[C@@H](CCC(=O)O)C(=O)N[C@@H](CCC(N)=O)C(=O)N[C@@H](C)C(=O)N[C@H](C(=O)N[C@H](C(=O)N[C@@H](CC(N)=O)C(=O)N[C@@H](C)C(=O)N[C@@H](CCCNC(=N)N)C(=O)N[C@H](C(=O)N[C@@H](CC(C)C)C(=O)N[C@@H](C)C(=O)N[C@@H](CCCNC(=N)N)C(=O)N[C@H](C(N)=O)C(C)C)[C@@H](C)CC)[C@@H](C)O)[C@@H](C)O)[C@@H](C)CC)[C@@H](C)CC)C(C)C)C(C)C [compound 371] (H-IVLSLDVPIHLLQILLEQARARAAREQATTNARILARV-NH2; N-terminus assumed)
- pEC50 [1]: 8.18
- pEC50 [2]: ≤ 6.00
